# Test: gradient 5% acetonitrile 3 min, to 50% in 2 min, to 85% in 15 min, held 3 min, 100 µL/min
# Settings: column: Zorbax Extend-C18 2.1 x 50 mm; eluents: water / acetonitrile, 0.1% formic acid
# Procedure, shortened: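 Pure standards were analyzed in mixtures of ~100 molecules using HPLC coupled to a quadrupole time-of-flight mass spectrometer, in both positive and negative ionization mode. Separation used a Zorbax Extend-C18 column (2.1 × 50 mm, 1.8 μm) at 100 μL/min, with water and acetonitrile each containing 0.1% formic acid. Dead and dwell volumes were 40 μL and 900 μL, and data were collected over 3 months. Retention time was read from computationally picked adduct peaks, each inspected manually.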
row,Compound,RP-LC retention time
1,CC(C)C(=O)Nc1ccc(S(=O)(=O)NCC(c2ccsc2)N(C)C)cc1 (stereo unspecified),565 s
2,O=C(c1ccsc1)N1[C@H]2CC[C@@H]1c1cnc(-c3ccc(F)cc3)nc1C2,952 s
3,COC(=O)C1=C(CN2CCN(C)CC2)NC(=O)NC1c1cc(C)ccc1C (stereo unspecified),614 s
4,Nc1cc(C2CCN(S(=O)(=O)c3cccc(Br)c3)CC2)no1,824 s
5,Cc1ccc(S(=O)(=O)N2C(=O)CCC2C(=O)NCc2nc(-c3ccc(Cl)cc3)no2)cc1 (stereo unspecified),951 s
6,Fc1ccc(-c2nnc(Cc3nc(-c4cccnc4)no3)o2)cc1,747 s
7,Cc1nnc2c(NC(=O)c3ccsc3)cccn12,606 s
8,Cn1cccc1CN1CCCC(COc2ccccc2C(=O)N2CCCC2)C1 (stereo unspecified),644 s
9,Cc1ccc(S(=O)(=O)N2CCC(CCC(=O)O)CC2)cc1,799 s
10,CC(=O)Nc1ccc(C(=O)N2CC(C)CC(C)C2)o1 (stereo unspecified),739 s
11,CC1=C(c2ccc(C(C)C)cc2)S(=O)(=O)N=C1N1CCCN(C(=O)c2ccoc2)CC1,911 s
12,O=C(c1nnc(-c2ccc(S(=O)(=O)N3CCCC3)cc2)o1)N1CCC(Cc2ccccc2)CC1,1130 s
13,COc1ccccc1CNC(=O)C1CCc2nc(N3CCCCC3)ncc2C1 (stereo unspecified),755 s
14,O=C1CC(c2nc3ccccc3n2CCN2CCOCC2)CN1Cc1ccccc1 (stereo unspecified),597 s
15,Cn1cc(C2=CCN(C(=O)Nc3ccc(F)cc3F)CC2)c2cccnc21,792 s
16,CCOc1cccc(CN2C[C@@H]3C(=O)N(Cc4ccc5c(c4)OCO5)C(=O)[C@@H]3C2)c1,770 s
17,Brc1ccc(-c2noc(CSc3nccn3-c3ccccc3)n2)cc1,1030 s
18,Nc1nc2c(C(F)(F)F)cccc2s1,720 s
19,CC(=O)Nc1ccc(NC(=O)c2nn(-c3ccc(F)cc3)c3ccccc3c2=O)cc1,778 s

row,Compound,RP-LC retention time
1,CC(=O)NC(CC(C)C)C(=O)NC(Cc1ccccc1)C(=O)CCl (stereo unspecified),750 s
2,Cc1ccc2c(c1)C(O)(CC(=O)c1ccccc1)C(=O)N2 (stereo unspecified),666 s
3,Cc1cc(F)ccc1NC(=O)c1cnc2c(c1)c(=O)n(C)c(=O)n2-c1ccccc1,854 s
4,CCOC(=O)CNC(=O)Nc1ccc(-c2nc(-c3cc(C)ccc3C)co2)cc1,1040 s
5,COC(=O)c1ccc2c(=O)n(-c3cccc(OC)c3)c(N3CCCCCC3)nc2c1,1210 s
6,CCN1CCN(c2cc(C)c3cc(NC(=O)c4ccc([N+](=O)[O-])c(C)c4)ccc3n2)CC1,621 s
7,O=C(NCc1cccc(Cl)c1)C1CCCN(c2nccnc2Sc2ccccc2)C1 (stereo unspecified),1080 s
8,COC(=O)c1cc2c(=O)n(-c3nc(-c4ccccc4)cs3)ccc2nc1C,1250 s
9,CCN1C(=O)c2cccnc2Sc2cc(NC(=O)COc3ccc(Cl)cc3)ccc21,927 s
10,Cc1ccccc1NC(=O)C1CCN(S(=O)(=O)c2c(C)[nH]c(C)c2C(=O)N2CCCC2)CC1,675 s
11,Cc1cc(C)c(S(=O)(=O)N2CC(F)(F)C[C@H]2COc2cccnc2)cc1C,817 s
12,CC(C)n1c(=O)c2ccccc2n(Cc2nc(-c3cccc(C(F)(F)F)c3)no2)c1=O,1230 s
13,C=CCn1c(=O)c2c(nc3n2CCCCN3c2ccc(OCC)cc2)n(C)c1=O,917 s
14,Cc1cccc(N2CCN(C(=O)CCC(=O)N3CCCn4nc(-c5cccn5C)cc43)CC2)c1C,968 s
15,COCCCNC(=O)C1CCCN(c2ccc(-c3ccc(C)c(C)c3)nn2)C1 (stereo unspecified),647 s
16,Cc1nc(N2CCCC2)c2c(C(=O)Nc3ccc(C)c(F)c3)c(C)oc2n1,836 s
17,CCC(C)C(NC(=O)c1ccsc1)C(=O)Nc1nc2ccccc2[nH]1 (stereo unspecified),703 s
18,Cc1cccc(-c2nnc(C)c(N3CCCC3)n2)c1,656 s
19,CCc1ccc(NC(=O)Nc2ccc(NC(=O)N3CCCC(C(=O)NC)C3)cc2)cc1 (stereo unspecified),730 s

# Continued, values first:
row,RP-LC retention time,Compound
1,1020 s,CCSc1nc2ccc(NS(=O)(=O)c3cc(F)ccc3F)cc2s1
2,625 s,O=C(O)C1CCc2sc(C(=O)N3CCOCC3)cc2C1 (stereo unspecified)
3,942 s,Cc1cc(NC(=O)c2cc(C)n3nccc3n2)ccc1F
4,715 s,Cc1ccc(Nc2nc(C)cc(N3CCN(C(=O)c4ccc(Br)o4)CC3)n2)cc1
5,1110 s,Cc1ccc(-c2nnc(Cc3nc(-c4ccccc4Cl)no3)o2)cc1F
6,720 s,CCc1nc(OCC(=O)Nc2cc(OC)cc(OC)c2)c2ccccc2n1
7,979 s,CCC(c1cccs1)N1C(=O)[C@H]2CN(S(=O)(=O)c3ccc(F)cc3)C[C@H]2C1=O (stereo partly specified)
8,831 s,O=C(Cn1c(=O)cc(C(=O)N2CCc3ccccc3C2)c2ccccc21)Nc1ccc2c(c1)OCCO2
9,872 s,CN(CCc1noc(COc2ccccc2)n1)C(=O)c1c(F)cccc1F
10,741 s,Cc1ccc(CNC(=O)c2ccccc2CN2C(=O)C3CCCN3C(=O)c3ccccc32)o1 (stereo unspecified)
11,666 s,Cc1cc(N2CCN(C(=O)Nc3ccc(C)c(C)c3)CC2)nc(N2CCOCC2)n1
12,890 s,Cc1cc(C)cc(N2CCC(NC(=O)Nc3ccccc3C)C2=O)c1 (stereo unspecified)
13,620 s,Nc1nc(N)nc(C2C=CCCC2)n1 (stereo unspecified)
14,889 s,CSc1ccc(CNC(=O)c2nnc(-c3ccc(S(=O)(=O)N(C)C)cc3)o2)cc1
15,1030 s,CCCCN1C(=O)C(NC(=O)CCc2ccccc2)(C(F)(F)F)C(C(=O)OC)=C1C (stereo unspecified)
16,1000 s,Cc1ccc2c(c1)N(Cc1ccccc1F)N=C(C(=O)N1CCCCC1)S2(=O)=O
17,797 s,COc1ccc(-c2cn3c(CC(=O)N4c5ccccc5CC4C)csc3n2)cc1OC (stereo unspecified)
18,712 s,Cc1cc(C)c(NC(=O)Cn2cc(-c3nc(C)no3)ccc2=O)c(C)c1
19,869 s,O=C(Nc1nccs1)c1ccc2c(c1)CCCC2
20,971 s,CCn1nc(-c2csc(S(=O)(=O)N3CCC(C)CC3)c2)ccc1=O
21,643 s,CC(=O)Nc1c(C)noc1/C=C\c1ccc(S(=O)(=O)N2CCN(c3ccccn3)CC2)cc1
22,662 s,COC(=O)c1scc(-c2ccccc2)c1S(=O)(=O)N1CCC(C(N)=O)(N2CCCCC2)CC1
23,608 s,Cc1cnc(C2CN(C(=O)c3cccn3C)C2)n1CC1CC1
24,880 s,CCc1cccc(C)c1Nc1c(-c2ccc(C)cc2)nc2nc(C)cc(C)n12
25,634 s,COc1cc(C(=O)Nc2ccc(-c3cn4ccc(C)nc4n3)cc2)cc(OC)c1OC
26,725 s,COCCNC(=O)C1CCN(C2=NS(=O)(=O)C(c3ccc(Cl)cc3)=C2C)CC1
27,810 s,CCC(CC)NC(=O)C1CCN(c2nc3ccc(-c4cncnc4)nc3s2)CC1
28,860 s,O=C(NC1CCCCC1)C1c2ccccc2C(=O)N1Cc1ccc2c(c1)OCO2 (stereo unspecified)
